Assay results taken from ChEMBL document CHEMBL5500371, “Arginine and tryptophan-rich dendritic antimicrobial peptides that disrupt membranes for bacterial infection in vivo” (Eur J Med Chem, 2024).
Converted amounts (≈) assume the structure as drawn. Where a SMILES comes first, the peptide text is derived from it. Side-chain parts run from the residue outwards.

Assays:
Acinetobacter baumannii = test: Antibacterial activity against Acinetobacter baumannii ATCC 19606 assessed as inhibition of bacterial growth incubated for 20 hrs by broth microdilution method; format: functional
Klebsiella pneumoniae = test: Antibacterial activity against Klebsiella pneumoniae ATCC 700603 assessed as inhibition of bacterial growth incubated for 20 hrs by broth microdilution method; format: functional
Escherichia coli = test: Antibacterial activity against Escherichia coli ATCC 25922 assessed as inhibition of bacterial growth incubated for 20 hrs by broth microdilution method; format: functional
Bacillus subtilis = test: Antibacterial activity against Bacillus subtilis ATCC 23857 assessed as inhibition of bacterial growth incubated for 20 hrs by broth microdilution method; format: functional
[1] = Cytotoxicity against HEK293T cells assessed as cell death measured after 1 hr by resazurin dye based analysis; format: toxicity, HEK-293T; details: human, HEK293T cells
Pseudomonas aeruginosa = test: Antibacterial activity against Pseudomonas aeruginosa ATCC 27853 assessed as inhibition of bacterial growth incubated for 20 hrs by broth microdilution method; format: functional
Staphylococcus aureus = test: Antibacterial activity against Staphylococcus aureus ATCC 25923 assessed as inhibition of bacterial growth incubated for 20 hrs by broth microdilution method; format: functional
Erythrocyte = test: Hemolytic activity in mouse erythrocytes assessed as 10% hemolysis incubated for 1 hr by absorbance based analysis; format: toxicity, cell-based

Compound	MIC (Acinetobacter baumannii)	MIC (Klebsiella pneumoniae)	MIC (Escherichia coli)	MIC (Bacillus subtilis)	CC50 at 1 h [1]	MIC (Pseudomonas aeruginosa)	MIC (Staphylococcus aureus)	MHC10 (Erythrocyte)
N=C(N)NCCC[C@H](N)C(=O)NCCCC[C@H](NC(=O)[C@@H](N)CCCNC(=N)N)C(=O)N[C@@H](Cc1c[nH]c2ccccc12)C(N)=O (H-Arg-Lys(Arg)-Trp-NH2)	> 128 µM	> 128 µM	> 128 µM	> 128 µM	> 128 µM	> 128 µM	> 128 µM	> 256 µM
N=C(N)NCCC[C@H](NC(=O)[C@H](CCCCN)NC(=O)[C@H](Cc1c[nH]c2ccccc12)NC(=O)[C@@H](N)Cc1c[nH]c2ccccc12)C(N)=O (H-WWKR-NH2)	> 128 µM	> 128 µM	> 128 µM	> 128 µM	> 128 µM	> 128 µM	> 128 µM	> 256 µM
H-WWWWKRRRRR-NH2	32 µM	32 µM	16 µM	8 µM	116 µM	16 µM	8 µM	> 256 µM
CN[C@H](CC(C)C)C(=O)N[C@H]1C(=O)N[C@@H](CC(N)=O)C(=O)N[C@H]2C(=O)N[C@H]3C(=O)N[C@H](C(=O)N[C@H](C(=O)O)c4cc(O)cc(O)c4-c4cc3ccc4O)[C@H](O)c3ccc(c(Cl)c3)Oc3cc2cc(c3O[C@@H]2O[C@H](CO)[C@@H](O)[C@H](O)[C@H]2O[C@H]2C[C@](C)(N)[C@H](O)[C@H](C)O2)Oc2ccc(cc2Cl)[C@H]1O [VANCOMYCIN]	64 µM (≈ 92.8 µg/mL)	128 µM (≈ 186 µg/mL)	64 µM (≈ 92.8 µg/mL)	< 1 µM	–	> 128 µM	< 1 µM	–
N=C(N)NCCC[C@H](NC(=O)[C@H](CCCNC(=N)N)NC(=O)[C@H](CCCNC(=N)N)NC(=O)[C@H](CCCNC(=N)N)NC(=O)[C@H](CCCNC(=N)N)NC(=O)[C@H](CCCCNC(=O)[C@H](Cc1c[nH]c2ccccc12)NC(=O)[C@@H](N)Cc1c[nH]c2ccccc12)NC(=O)[C@H](Cc1c[nH]c2ccccc12)NC(=O)[C@@H](N)Cc1c[nH]c2ccccc12)C(N)=O (H-WWK([Trp-Trp])RRRRR-NH2)	32 µM (≈ 53.5 µg/mL)	64 µM (≈ 107 µg/mL)	8 µM (≈ 13.4 µg/mL)	8 µM (≈ 13.4 µg/mL)	> 128 µM	32 µM (≈ 53.5 µg/mL)	8 µM (≈ 13.4 µg/mL)	> 256 µM
N=C(N)NCCC[C@H](NC(=O)[C@H](CCCNC(=N)N)NC(=O)[C@@H](N)CCCNC(=N)N)C(=O)NCCCC[C@H](NC(=O)[C@H](CCCNC(=N)N)NC(=O)[C@H](CCCNC(=N)N)NC(=O)[C@@H](N)CCCNC(=N)N)C(=O)N[C@@H](Cc1c[nH]c2ccccc12)C(=O)N[C@@H](Cc1c[nH]c2ccccc12)C(=O)N[C@@H](Cc1c[nH]c2ccccc12)C(=O)N[C@@H](Cc1c[nH]c2ccccc12)C(=O)N[C@@H](Cc1c[nH]c2ccccc12)C(=O)N[C@@H](Cc1c[nH]c2ccccc12)C(=O)N[C@@H](Cc1c[nH]c2ccccc12)C(N)=O (H-RRRK([Arg-Arg-Arg])WWWWWWW-NH2)	16 µM (≈ 38.2 µg/mL)	64 µM (≈ 153 µg/mL)	64 µM (≈ 153 µg/mL)	16 µM (≈ 38.2 µg/mL)	53.5 µM	16 µM (≈ 38.2 µg/mL)	32 µM (≈ 76.3 µg/mL)	12.98 µM
N=C(N)NCCC[C@H](NC(=O)[C@@H](N)CCCNC(=N)N)C(=O)NCCCC[C@H](NC(=O)[C@H](CCCNC(=N)N)NC(=O)[C@@H](N)CCCNC(=N)N)C(=O)N[C@@H](Cc1c[nH]c2ccccc12)C(=O)N[C@@H](Cc1c[nH]c2ccccc12)C(=O)N[C@@H](Cc1c[nH]c2ccccc12)C(=O)N[C@@H](Cc1c[nH]c2ccccc12)C(=O)N[C@@H](Cc1c[nH]c2ccccc12)C(N)=O (H-RRK([Arg-Arg])WWWWW-NH2)	32 µM (≈ 54.4 µg/mL)	16 µM (≈ 27.2 µg/mL)	16 µM (≈ 27.2 µg/mL)	8 µM (≈ 13.6 µg/mL)	58.8 µM	16 µM (≈ 27.2 µg/mL)	16 µM (≈ 27.2 µg/mL)	51.32 µM
N=C(N)NCCC[C@H](NC(=O)[C@@H](N)CCCNC(=N)N)C(=O)NCCCC[C@H](NC(=O)[C@H](CCCNC(=N)N)NC(=O)[C@@H](N)CCCNC(=N)N)C(=O)N[C@@H](Cc1c[nH]c2ccccc12)C(=O)N[C@@H](Cc1c[nH]c2ccccc12)C(=O)N[C@@H](Cc1c[nH]c2ccccc12)C(N)=O (H-RRK([Arg-Arg])WWW-NH2)	> 128 µM	64 µM (≈ 85 µg/mL)	16 µM (≈ 21.3 µg/mL)	4 µM (≈ 5.31 µg/mL)	> 128 µM	16 µM (≈ 21.3 µg/mL)	16 µM (≈ 21.3 µg/mL)	> 256 µM
N=C(N)NCCC[C@H](N)C(=O)NCCCC[C@H](NC(=O)[C@@H](N)CCCNC(=N)N)C(=O)N[C@@H](Cc1c[nH]c2ccccc12)C(=O)N[C@@H](Cc1c[nH]c2ccccc12)C(=O)N[C@@H](Cc1c[nH]c2ccccc12)C(N)=O (H-RK(Arg)WWW-NH2)	> 128 µM	> 128 µM	> 128 µM	32 µM (≈ 32.5 µg/mL)	> 128 µM	32 µM (≈ 32.5 µg/mL)	32 µM (≈ 32.5 µg/mL)	> 256 µM
N=C(N)NCCC[C@H](NC(=O)[C@H](CCCNC(=N)N)NC(=O)[C@H](CCCNC(=N)N)NC(=O)[C@H](CCCCNC(=O)[C@@H](N)Cc1c[nH]c2ccccc12)NC(=O)[C@@H](N)Cc1c[nH]c2ccccc12)C(N)=O (H-WK(Trp)RRR-NH2)	> 128 µM	> 128 µM	> 128 µM	> 128 µM	> 128 µM	> 128 µM	> 128 µM	> 256 µM
H-RRKWWW-NH2	128 µM	> 128 µM	64 µM	16 µM	> 128 µM	128 µM	64 µM	> 256 µM
H-WWKRRR-NH2	> 128 µM	> 128 µM	> 128 µM	64 µM	> 128 µM	> 128 µM	> 128 µM	> 256 µM
H-WWWWKRRR-NH2	32 µM	64 µM	32 µM	8 µM	> 128 µM	16 µM	8 µM	> 256 µM
H-RRRRRRKWWWWW-NH2	32 µM	32 µM	16 µM	8 µM	55.1 µM	32 µM	16 µM	42.8 µM
N=C(N)NCCC[C@H](NC(=O)[C@H](CCCCNC(=O)[C@@H](N)Cc1c[nH]c2ccccc12)NC(=O)[C@@H](N)Cc1c[nH]c2ccccc12)C(N)=O (H-Trp-Lys(Trp)-Arg-NH2)	> 128 µM	> 128 µM	> 128 µM	128 µM (≈ 86.2 µg/mL)	> 128 µM	> 128 µM	> 128 µM	> 256 µM
N=C(N)NCCC[C@H](NC(=O)[C@H](CCCNC(=N)N)NC(=O)[C@H](CCCNC(=N)N)NC(=O)[C@H](CCCCNC(=O)[C@H](Cc1c[nH]c2ccccc12)NC(=O)[C@@H](N)Cc1c[nH]c2ccccc12)NC(=O)[C@H](Cc1c[nH]c2ccccc12)NC(=O)[C@@H](N)Cc1c[nH]c2ccccc12)C(N)=O (H-WWK([Trp-Trp])RRR-NH2)	128 µM (≈ 174 µg/mL)	> 128 µM	> 128 µM	16 µM (≈ 21.7 µg/mL)	> 128 µM	> 128 µM	16 µM (≈ 21.7 µg/mL)	> 256 µM
H-WWWWWWKRRRRRR-NH2	32 µM	16 µM	16 µM	8 µM	45 µM	32 µM	8 µM	34.63 µM
H-WWWWWWKRRRRR-NH2	16 µM	32 µM	16 µM	8 µM	44.9 µM	16 µM	8 µM	29.45 µM
N=C(N)NCCC[C@H](NC(=O)[C@H](CCCNC(=N)N)NC(=O)[C@H](CCCCNC(=O)[C@@H](N)Cc1c[nH]c2ccccc12)NC(=O)[C@@H](N)Cc1c[nH]c2ccccc12)C(N)=O (H-WK(Trp)RR-NH2)	> 128 µM	> 128 µM	> 128 µM	> 128 µM	> 128 µM	> 128 µM	> 128 µM	> 256 µM
H-WWWWWWKRRRRRRR-NH2	32 µM	32 µM	32 µM	16 µM	46.6 µM	32 µM	32 µM	27.86 µM
H-RRRRKWWWWW-NH2	32 µM	16 µM	8 µM	4 µM	63.6 µM	32 µM	8 µM	45.69 µM
N=C(N)NCCC[C@H](NC(=O)[C@H](CCCNC(=N)N)NC(=O)[C@@H](N)CCCNC(=N)N)C(=O)NCCCC[C@H](NC(=O)[C@H](CCCNC(=N)N)NC(=O)[C@H](CCCNC(=N)N)NC(=O)[C@@H](N)CCCNC(=N)N)C(=O)N[C@@H](Cc1c[nH]c2ccccc12)C(=O)N[C@@H](Cc1c[nH]c2ccccc12)C(=O)N[C@@H](Cc1c[nH]c2ccccc12)C(=O)N[C@@H](Cc1c[nH]c2ccccc12)C(=O)N[C@@H](Cc1c[nH]c2ccccc12)C(=O)N[C@@H](Cc1c[nH]c2ccccc12)C(N)=O (H-RRRK([Arg-Arg-Arg])WWWWWW-NH2)	32 µM (≈ 70.4 µg/mL)	32 µM (≈ 70.4 µg/mL)	32 µM (≈ 70.4 µg/mL)	16 µM (≈ 35.2 µg/mL)	34 µM	32 µM (≈ 70.4 µg/mL)	32 µM (≈ 70.4 µg/mL)	22.12 µM
N=C(N)NCCC[C@H](N)C(=O)NCCCC[C@H](NC(=O)[C@@H](N)CCCNC(=N)N)C(=O)N[C@@H](Cc1c[nH]c2ccccc12)C(=O)N[C@@H](Cc1c[nH]c2ccccc12)C(N)=O (H-RK(Arg)WW-NH2)	> 128 µM	> 128 µM	> 128 µM	128 µM (≈ 106 µg/mL)	> 128 µM	> 128 µM	> 128 µM	> 256 µM
